The source of these data is patent US7381824B2 (Agouron Pharmaceuticals, Inc., priority 2003, dated 2008).

Test [1] addresses T1, human vascular endothelial growth factor receptor 2 (VEGF-R2) (Homo sapiens, UniProt P35968, DEL940-989/E990V).
T1 construct: VEGF-R2D50 contains residues 806-939 and 990-1171; made in house; host or cells: baculovirus/insect cell system
Description: VEGF-R2 coupled spectrophotometric assay (FLVK, unphosphorylated VEGF-R2D50). In kind it is biochemical. To be noted: unphosphorylated VEGF-R2D50 (FLVK). The source says: This construct determines the ability of a test compound to inhibit tyrosine kinase activity. A construct (VEGF-R2D50) of the cytosolic domain of human vascular endothelial growth factor receptor 2 (VEGF-R2) lacking the 50 central residues of the 68 residues of the kinase insert domain was expressed in a baculovirus/insect cell system. Of the 1356 residues of full-length VEGF-R2, VEGF-R2D50 contains residues 806-939 and 990-1171, and also one point mutation (E990V) within the kinase insert domain relative to wild-type VEGF-R2. Autophosphorylation of the purified construct was performed by incubation of the enzyme at a concentration of […] in the presence of 3 mM ATP and 40 mM MgCl2 in 100 mM HEPES, pH 7.5, containing 5% glycerol and 5 mM DTT, at 4° C. for 2 h. […] See Parast et al., Biochemistry, 37, 16788-16801 (1998).
VEGF-R2 Assay: Coupled Spectrophotometric (FLVK-P) Assay
The production of ADP from ATP that accompanies phosphoryl transfer was coupled to oxidation of NADH using phosphoenolpyruvate (PEP) and a system having pyruvate kinase (PK) and lactic dehydrogenase (LDH). The oxidation of NADH was monitored by following the decrease of absorbance at 340 nm (e340=6.22 cm^−1 mM^−1) using a Beckman DU 650 spectrophotometer. Assay conditions for phosphorylated VEGF-R2D50 (indicated as FLVK-P in the tables below) were the following: 1 mM PEP; […] NADH; 50 units of LDH/mL; 20 units of PK/mL; 5 mM DTT; 5.1 mM poly(E4Y1); 1 mM ATP; and 25 mM MgCl2 in 200 mM HEPES, pH 7.5. Assay conditions for unphosphorylated VEGF-R2D50 (indicated as FLVK in the tables) were the following: 1 mM PEP; […] NADH; 50 units of LDH/mL; 20 units of PK/mL; 5 mM DTT; 20 mM poly(E4Y1); 3 mM ATP; and 60 mM MgCl2 and 2 mM MnCl2 in 200 mM HEPES, pH 7.5. Assays were initiated with 5 to 40 nM of enzyme. K1 values were determined by measuring enzyme activity in the presence of varying concentrations of test compounds. The percent inhibition at 50 nM (% inhibition @ 50 nM) was determined by linear least-squares regression analysis of absorbance as a function of time. The binding inhibitions were fitted to equation as described by Morrison. The data were analyzed using Enzyme Kinetic and Kaleidagraph software.

Test [2] concerns human umbilical vein endothelial cells (HUVEC). Kind of test: HUVEC+VEGF proliferation assay. In kind it is cell-based. To be noted: VEGF-stimulated HUVEC proliferation, MTT, 72 hours. How it is done: HUVEC+VEGF Proliferation Assay
This assay determines the ability of a test compound to inhibit the growth factor-stimulated proliferation of human umbilical vein endothelial cells (“HUVEC”). HUVEC cells (passage 3-4, Clonetics, Corp.) were thawed into EGM2 culture medium (Clonetics Corp) in T75 flasks. Fresh EGM2 medium was added to the flasks 24 hours later. Four or five days later, cells were exposed to another culture medium (F12K medium supplemented with 10% fetal bovine serum (FBS), […] endothelial cell growth supplement (ECGS), and 0.1 mg/mL heparin). Exponentially-growing HUVEC cells were used in experiments thereafter. Ten to twelve thousand HUVEC cells were plated in 96-well dishes in […] of rich, culture medium (described above). The cells were allowed to attach for 24 hours in this medium. The medium was then removed by aspiration and […] of starvation media (F12K+1% FBS) was added to each well. After 24 hours, […] of test agent dissolved in 1% DMSO in starvation medium or this vehicle alone was added into each treatment well; the final DMSO concentration was 0.1%. One hour later, […] of VEGF (30 ng/mL) in starvation media was added to all wells except those containing untreated controls; the final VEGF concentration was 6 ng/mL. Cellular proliferation was quantified 72 hours later by MTT dye reduction, at which time cells were exposed for 4 hours MTT (Promega Corp.). Dye reduction was stopped by addition of a stop solution (Promega Corp.) and absorbance at 595 nm was determined on a 96-well spectrophotometer plate reader.

T1 sequence (P35968 with tags, fused parts or gaps DEL940-989/E990V limits assumed): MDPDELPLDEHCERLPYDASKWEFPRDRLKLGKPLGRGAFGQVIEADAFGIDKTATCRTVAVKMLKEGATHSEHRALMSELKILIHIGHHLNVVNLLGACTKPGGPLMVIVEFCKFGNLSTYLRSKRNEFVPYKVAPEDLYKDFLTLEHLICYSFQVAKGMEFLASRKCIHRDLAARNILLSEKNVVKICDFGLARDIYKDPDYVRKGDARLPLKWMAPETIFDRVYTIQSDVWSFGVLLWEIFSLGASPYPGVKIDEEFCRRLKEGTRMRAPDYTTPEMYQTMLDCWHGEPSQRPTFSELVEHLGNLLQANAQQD

One may read the Ki as a dissociation constant, usually derived from enzyme kinetics or from competition with a known ligand. The low end stands for a stronger hold on the target, the high end for a looser hold on the target. For orientation: IC50 means the concentration that inhibits the measured activity by half. Take `CNC(=O)c1c(C)oc2cc(Oc3ccnc4cc(-c5ccccn5)ccc34)ccc12` [Example 9, N-2-dimethyl-6-[(7-pyridin-2-ylquinolin-4-yl)oxy]-1-benzofuran-3-carboxamide]: the Ki in test [1] is under 1 nM. The 50% inhibitory concentration (IC50) in test [2] (Homo sapiens) fell in the range of 1 to 10 nM.

`COCCNC(=O)c1c(C)oc2cc(Oc3ccnc4cc(OC)ccc34)ccc12` [Example 88, N-(2-methoxyethyl)-6-[(7-methoxyquinolin-4-yl)oxy]-2-methyl-1-benzofuran-3-carboxamide] returned an inhibitory constant (Ki) in test [1] of 1 to 10 nM. Moreover, the IC50 in test [2] (Homo sapiens) was in the range of 1 to 10 nM.

For the compound `CNC(=O)c1c(C)oc2cc(Oc3ccnc4cc(OCCN5CCOCC5)ccc34)ccc12` [Example 36, N,2-dimethyl-6-{[7-(2-morpholin-4-ylethoxy)quinolin-4-yl]oxy)-1-benzofuran-3-carboxamide], the Ki in test [1] lay within 1 to 10 nM. Also, the half-maximal inhibitory concentration (IC50) in test [2] (Homo sapiens) was under 1 nM.

In the case of `COc1ccc2c(Oc3ccc4c(C(=O)NC5CC5)c(C)sc4c3)ccnc2c1` [Example 48, N-cyclopropyl-6-[(7-methoxyquinolin-4-yl)oxy]-2-methyl-1-benzothiophene-3-carboxamide], in test [1], the inhibition constant Ki lay in the range of 1 to 10 nM. The half-inhibitory concentration (IC50) in test [2] (Homo sapiens) fell in the range of 1 to 10 nM.

As for `CNC(=O)c1c(C)oc2cc(Oc3ccnc4cc(OCCN(C)C)ccc34)ccc12` [Example 37, 6-({7-[2-(dimethylamino)ethoxy]quinolin-4-yl}oxy)-N,2-dimethyl-1-benzofuran-3-carboxamide], in test [1], the Ki is 1 to 10 nM. Moreover, the concentration for half-maximal inhibition (IC50) in test [2] (Homo sapiens) was under 1 nM.

As for `COc1ccc2c(Oc3ccc4c(C(=O)NC5CCCC5)c(C)sc4c3)ccnc2c1` [Example 53, N-cyclopentyl-6-[(7-methoxyquinolin-4-yl)oxy]-2-methyl-1-benzothiophene-3-carboxamide], the Ki in test [1] fell in the range of 1 to 10 nM. The IC50 in test [2] (Homo sapiens) is 1 to 10 nM.

In test [1], `CNC(=O)c1c(C)oc2cc(Oc3ccnc4cc(OC)ccc34)ccc12` [Example 29, 6-[(7-methoxyquinoline-4-yl)oxy]-N,2-dimethyl-1-benzofuran-3-carboxamide] yielded a Ki of under 1 nM. Also, in test [2] (Homo sapiens), the IC50 is 1 to 10 nM.

With `Cc1oc2cc(Oc3ccnc4cc(OC(F)(F)F)ccc34)ccc2c1C(=O)NC1CC1` [Example 73, N-cyclopropyl-2-methyl-6-{[7-(trifluoromethoxy)quinolin-4-yl]oxy}-1-benzofuran-3-carboxamide], the Ki in test [1] fell in the range of 1 to 10 nM. Moreover, the half-inhibitory concentration (IC50) in test [2] (Homo sapiens) lay within 1 to 10 nM.

For `CNC(=O)n1c(C)cc2cc(Nc3ccnc4cc(-c5ccncc5)ccc34)ccc21` [Example 11, N-2-dimethyl-5-[(7-pyridin-4-ylquinolin-4-yl]amino]-1H-indole-1-carboxamide], the inhibition constant Ki in test [1] was in the range of 1 to 10 nM. Also, in test [2] (Homo sapiens), the half-maximal inhibitory concentration (IC50) is under 1 nM.

For the compound `CCCCNC(=O)c1c(C)oc2cc(Oc3ccnc4cc(OCCN5CCCC5)ccc34)ccc12` [Example 44, N-butyl-2-methyl-6-{[7-(2-pyrrolidin-1-ylethoxy)quinolin-4-yl]oxy}-1-benzofuran-3-carboxamide], the Ki in test [1] was 1 to 10 nM. In test [2] (Homo sapiens), the IC50 is under 1 nM.

The compound `CNC(=O)c1c(C)sc2cc(Oc3ccnc4cc(-c5ccccn5)ccc34)ccc12` [Example 31] yielded a Ki in test [1] of 1 to 10 nM. Further, the half-inhibitory concentration (IC50) in test [2] is under 1 nM.

`COc1ccc2c(Oc3ccc4c(C(=O)NCCCO)c(C)oc4c3)ccnc2c1` [Example 67, N-(3-hydroxypropyl)-6-[(7-methoxyquinolin-4-yl)oxy]-2-methyl-1-benzofuran-3-carboxamide] yielded a Ki in test [1] of 1 to 10 nM. In test [2] (Homo sapiens), the IC50 was 1 to 10 nM.

In the case of `CCCCNC(=O)c1c(C)oc2cc(Oc3ccnc4cc(OCCN(C)C)ccc34)ccc12` [Example 46, N-butyl-6-({7-[2-(dimethylamino)ethoxy]quinolin-4-yl}oxy)-2-methyl-1-benzofuran-3-carboxamide], the Ki in test [1] was in the range of 1 to 10 nM. The IC50 in test [2] (Homo sapiens) is under 1 nM.

Consider `COc1ccc2c(Oc3ccc4c(C(=O)NC5CCCCC5)c(C)sc4c3)ccnc2c1` [Example 52, N-cyclohexyl-6-[(7-methoxyquinolin-4-yl)oxy]-2-methyl-1-benzothiophene-3-carboxamide], for which, in test [1], the Ki fell in the range of 1 to 10 nM. In test [2] (Homo sapiens), the half-maximal inhibitory concentration (IC50) lay within 1 to 10 nM.

Compound `CCCCNC(=O)c1c(C)oc2cc(Oc3ccnc4cc(OCCN5CCCCC5)ccc34)ccc12` [Example 47, N-butyl-2-methyl-6-{[7-(2-piperidin-1-ylethoxy)quinolin-4-yl]oxy}-1-benzofuran-3-carboxamide] registered a Ki in test [1] of 1 to 10 nM. Also, in test [2] (Homo sapiens), the IC50 is under 1 nM.

Compound `CNC(=O)c1c(C)sc2cc(Oc3ccnc4cc(-c5ccncc5)ccc34)ccc12` [Example 10, N-2-dimethyl-6-[(7-pyridin-4-ylquinolin-4-yl]oxy]-1-benzothiophene-3-carboxamide] showed a Ki in test [1] of 1 to 10 nM. Moreover, the IC50 in test [2] (Homo sapiens) was 1 to 10 nM.

In test [1], `CCCNC(=O)c1c(C)sc2cc(Oc3ccnc4cc(OC)ccc34)ccc12` [Example 50, [(7-methoxyquinolin-4-yl)oxy]-2-methyl-N-propyl-1-benzothiophene-3-carboxamide] gave a Ki of 1 to 10 nM. Besides, in test [2] (Homo sapiens), the IC50 is 1 to 10 nM.

On to `COc1ccc2c(Oc3ccc4c(C(=O)NCc5ccccn5)c(C)oc4c3)ccnc2c1` [Example 66, 6-[(7-methoxyquinolin-4-yl)oxy]-2-methyl-N-(pyridin-2-ylmethyl)-1-benzofuran-3-carboxamide], for which, in test [1], the Ki was over 10 nM. Moreover, the 50% inhibitory concentration (IC50) in test [2] (Homo sapiens) is 1 to 10 nM.

With `CNC(=O)c1c(C)oc2cc(Oc3ccnc4cc(-c5cccnc5)ccc34)ccc12` [Example 8, N-2-dimethyl-6-[(7-pyridin-3-ylquinolin-4-yl)oxy]-1-benzofuran-3-carboxamide], in test [1], the inhibition constant (Ki) is under 1 nM. Moreover, the IC50 in test [2] (Homo sapiens) was under 1 nM.

`CCCCNC(=O)c1c(C)oc2cc(Oc3ccnc4cc(OCCN5CCOCC5)ccc34)ccc12` [Example 45, N-butyl-2-methyl-6-{[7-(2-morpholin-4-ylethoxy)quinolin-4-yl]oxy}-1-benzofuran-3-carboxamide] showed a Ki in test [1] of 1 to 10 nM. The half-maximal inhibitory concentration (IC50) in test [2] (Homo sapiens) is 1 to 10 nM.

Regarding `COc1ccc2c(Oc3ccc4c(C(=O)NCCCN(C)C)c(C)sc4c3)ccnc2c1` [Example 51, N-[3-(dimethylamino)propyl]-6-[(7-methoxyquinolin-4-yl)oxy]-2-methyl-1-benzothiophene-3-carboxamide], the inhibition constant Ki in test [1] was over 10 nM. Also, the 50% inhibitory concentration (IC50) in test [2] (Homo sapiens) lay in the range of 1 to 10 nM.

Consider `COc1ccc2c(Oc3ccc4c(C(=O)NC[C@H]5CCCO5)c(C)oc4c3)ccnc2c1` [Example 84, 6-[(7-methoxyquinolin-4-yl)oxy]-2-methyl-N-[(2R)tetrahydrofuran-2-ylmethyl]-1-benzofuran-3-carboxamide], for which the Ki in test [1] is 1 to 10 nM. For the same compound, the IC50 in test [2] (Homo sapiens) fell in the range of 1 to 10 nM.

Compound `CNC(=O)c1c(C)sc2cc(Oc3ccnc4cc(-c5cccnc5)ccc34)ccc12` [Example 14, N2dimethyl-6-[(7-pyridin-3-ylquinolin-4-yl)oxy]-1-benzothiophene-3-carboxamide] had a Ki in test [1] of 1 to 10 nM. In addition, the IC50 in test [2] (Homo sapiens) lay in the range of 1 to 10 nM.

In test [1], `CNC(=O)c1c(C)oc2cc(Oc3ccnc4cc(I)ccc34)ccc12` [Example 6, 6-[(7-iodoquinolin-4-yl)oxy]-N,2-dimethyl-1-benzofuran-3-carboxamide] came in with an inhibition constant Ki of 1 to 10 nM. Further, the IC50 in test [2] (Homo sapiens) was in the range of 1 to 10 nM.
